Laboratory results from patent US12281363B2, “Methods for detecting antiviral-drug resistant virus” (Secretary of State for Health and Social Care, priority 2018, dated 2025).
Like-named read-outs stand apart in the source and are kept apart here.

Test system: HSV-2
Experiment: Plaque reduction assay, HSV-2 clinical isolates on Vero cells
Assay type: cell-based
Settings: for IC50: Human alphaherpesvirus 2, Vero
Excerpt: Viral isolates were used to infect a sub-confluent monolayer of Vero cells at a concentration of 75 or 50 plaque forming units (PFU) per well for HSV-1 and HSV-2, respectively. […] CMC medium typically used to create a semisolid interface and prevents indiscrimate viral spreading. Other materials (e.g. agar) may also be used to create this interface.
Cells were fixed with 10% formalin and stained with crystal violet before enumeration of the plaques (microscopic observation or use of fluorescent antibodies for detection is also suitable). The data obtained from these experiments were then expressed as percent inhibition of viral infectivity relative to the no drug control.
Definitions of phenotypic drug susceptibility classification as sensitive or resistant were as follows: ACV, <3 μM or >40 μM; PCV, <10 μM or >40 μM; CDV, <24 μM or >30 μM; FOS, <250 μM or >400 μM; and ACV, <6.5 μM or >40 μM; PCV, <38 μM or >40 μM; FOS, <250 μM or >400 μM for HSV-1 and HSV-2, respectively. Any IC50 values falling in between these sensitive and resistant cut-offs were reported as intermediate resistance.
The phenotype (i.e. reactivity to a drug) of the virus was characterised by the plaque reduction assay as described above. The present inventors have characterised the resistance-causing phenotype of a large number of TK and DNA pol mutations.

## Nc1nc2c(ncn2COCCO)c(=O)[nH]1 [Aciclovir, acyclovir]
HSV-2 DNA pol R628G (18820>G)
  Level of resistance: weak/intermediate resistance
Isolate HPG001, HSV-2 TK A125T (373G>A), read-out: Drug susceptibility (IC50 value)
  IC50: 1.53 µM
Isolate HPG001, HSV-2 pol H714R (2141A>G), read-out: Drug susceptibility (IC50 value)
  IC50: 1.53 µM
Isolate HPG004, HSV-2 pol M494T (1481T>C), also pol S729N, read-out: Drug susceptibility (IC50 value)
  IC50: > 40 µM
Isolate HPG007, HSV-2 pol R628G (1882C>G), read-out: Drug susceptibility (IC50 value)
  IC50: 28.6 µM
Isolate HPG017, HSV-2 TK Q186H (558G>T), read-out: Drug susceptibility (IC50 value)
  IC50: 10.2 µM
Isolate HPG022, HSV-2 TK E213D (639A>C), read-out: Drug susceptibility (IC50 value)
  IC50: 4.46 µM
Isolate HPG022, HSV-2 pol D174Y (520G>T), read-out: Drug susceptibility (IC50 value)
  IC50: 4.46 µM
Isolate HPG023, HSV-2 TK Q186H (558G>T), read-out: Drug susceptibility (IC50 value)
  IC50: 12.1 µM
Isolate HPG024, HSV-2 TK E213D (639A>C), read-out: Drug susceptibility (IC50 value)
  IC50: 2.5 µM
Isolate HPG028, HSV-2 TK 98stop or A94fs (276delG, 278delG, 279delG, or 280delG), read-out: Drug susceptibility (IC50 value)
  IC50: > 40 µM
Isolate HPG028, HSV-2 pol E776Q (2326G>C), also TK deletion (G) nt 276-280, read-out: Drug susceptibility (IC50 value)
  IC50: > 40 µM
Isolate HPG028, HSV-2 pol R775C, R775W (2323C>T; 2325C>G), also TK deletion (G) nt 276-280, read-out: Drug susceptibility (IC50 value)
  IC50: > 40 µM
Isolate HPG030, HSV-2 TK Q90stop (268C>T), read-out: Drug susceptibility (IC50 value)
  IC50: > 40 µM
Isolate HPG030, HSV-2 pol E761K (2281G>A), also TK Q90stop, read-out: Drug susceptibility (IC50 value)
  IC50: > 40 µM
Isolate HPG036, HSV-2 TK E84K (250G>A), read-out: Drug susceptibility (IC50 value)
  IC50: > 40 µM
Isolate HPG038, HSV-2 TK R34C (100C>T), read-out: Drug susceptibility (IC50 value)
  IC50: 2.04 µM
Isolate HPG044, HSV-2 TK M86L (256A>C), read-out: Drug susceptibility (IC50 value)
  IC50: > 40 µM
Isolate HPG048, HSV-2 TK Q90stop (268C>T), read-out: Drug susceptibility (IC50 value)
  IC50: > 40 µM
Isolate HPG048, HSV-2 pol E761K (2281G>A), also TK Q90stop, read-out: Drug susceptibility (IC50 value)
  IC50: > 40 µM
Isolate HPG057, HSV-2 TK 98stop or A94fs (276delG, 278delG, 279delG, or 280delG), read-out: Drug susceptibility (IC50 value)
  IC50: > 40 µM
Isolate HPG058, HSV-2 TK 183stop or P154fs (458delC, 459delC, 460delC, or 461delC), read-out: Drug susceptibility (IC50 value)
  IC50: 36.2 µM
read-out: Drug susceptibility (IC50 value), isolate HPG034, HSV-2 TK L313S (938A>C)
  IC50: 35.8 µM
read-out: Drug susceptibility (IC50 value), isolate HPG056, HSV-2 pol M447L (1339A>C)
  IC50: 1.56 µM
read-out: Drug susceptibility Aciclovir (ACV), isolate HPG001, HSV-2 TK A125T (373G>A)
  IC50: < 6.5 µM
read-out: Drug susceptibility Aciclovir (ACV), isolate HPG001, HSV-2 pol H714R (2141A>G)
  IC50: < 6.5 µM
read-out: Drug susceptibility Aciclovir (ACV), isolate HPG004, HSV-2 pol M494T (1481T>C), also pol S729N
  IC50: > 40 µM
read-out: Drug susceptibility Aciclovir (ACV), isolate HPG007, HSV-2 pol R628G (1882C>G)
  IC50: 6.5 to 40 µM
read-out: Drug susceptibility Aciclovir (ACV), isolate HPG017, HSV-2 TK Q186H (558G>T)
  IC50: 6.5 to 40 µM
read-out: Drug susceptibility Aciclovir (ACV), isolate HPG022, HSV-2 TK E213D (639A>C)
  IC50: < 6.5 µM
read-out: Drug susceptibility Aciclovir (ACV), isolate HPG022, HSV-2 pol D174Y (520G>T)
  IC50: < 6.5 µM
read-out: Drug susceptibility Aciclovir (ACV), isolate HPG023, HSV-2 TK Q186H (558G>T)
  IC50: 6.5 to 40 µM
read-out: Drug susceptibility Aciclovir (ACV), isolate HPG024, HSV-2 TK E213D (639A>C)
  IC50: < 6.5 µM
read-out: Drug susceptibility Aciclovir (ACV), isolate HPG028, HSV-2 TK 98stop or A94fs (276delG, 278delG, 279delG, or 280delG)
  IC50: > 40 µM
read-out: Drug susceptibility Aciclovir (ACV), isolate HPG028, HSV-2 pol E776Q (2326G>C), also TK deletion (G) nt 276-280
  IC50: > 40 µM
read-out: Drug susceptibility Aciclovir (ACV), isolate HPG028, HSV-2 pol R775C, R775W (2323C>T; 2325C>G), also TK deletion (G) nt 276-280
  IC50: > 40 µM
read-out: Drug susceptibility Aciclovir (ACV), isolate HPG030, HSV-2 TK Q90stop (268C>T)
  IC50: > 40 µM
read-out: Drug susceptibility Aciclovir (ACV), isolate HPG030, HSV-2 pol E761K (2281G>A), also TK Q90stop
  IC50: > 40 µM
read-out: Drug susceptibility Aciclovir (ACV), isolate HPG034, HSV-2 TK L313S (938A>C)
  IC50: 6.5 to 40 µM
read-out: Drug susceptibility Aciclovir (ACV), isolate HPG036, HSV-2 TK E84K (250G>A)
  IC50: > 40 µM
read-out: Drug susceptibility Aciclovir (ACV), isolate HPG038, HSV-2 TK R34C (100C>T)
  IC50: < 6.5 µM
read-out: Drug susceptibility Aciclovir (ACV), isolate HPG044, HSV-2 TK M86L (256A>C)
  IC50: > 40 µM
read-out: Drug susceptibility Aciclovir (ACV), isolate HPG048, HSV-2 TK Q90stop (268C>T)
  IC50: > 40 µM
read-out: Drug susceptibility Aciclovir (ACV), isolate HPG048, HSV-2 pol E761K (2281G>A), also TK Q90stop
  IC50: > 40 µM
read-out: Drug susceptibility Aciclovir (ACV), isolate HPG056, HSV-2 pol M447L (1339A>C)
  IC50: < 6.5 µM
read-out: Drug susceptibility Aciclovir (ACV), isolate HPG057, HSV-2 TK 98stop or A94fs (276delG, 278delG, 279delG, or 280delG)
  IC50: > 40 µM
read-out: Drug susceptibility Aciclovir (ACV), isolate HPG058, HSV-2 TK 183stop or P154fs (458delC, 459delC, 460delC, or 461delC)
  IC50: 6.5 to 40 µM
